Data: PubChem BioAssay AID330 (DTP/NCI, 2004)
Values joined by “and” are separate entries in the source; they are usually repeats but may differ in a detail not shown here. Identical values can stand only once. Inconclusive results and toxic doses are left out.

Test system: P388 leukemia ip, CD2F1 mice, survival T/C
Assay: NCI In Vivo Anticancer Drug Screen. Data for tumor model P388 Leukemia (intraperitoneal) in CD2F1 (CDF1) mice
Conditions: endpoint: median survival time, higher = longer survival
Method in brief: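 Mice carrying the transplanted tumor received test compound or vehicle. Survival was recorded in each group, and the value is the treated-group measurement divided by that of the vehicle-treated control group.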

[1] = dose: 100.0 mg/kg/injection, schedule: Q04DX003 (ip), vehicle: Klucel (hydroxypropylcellulose) (HPC)
[2] = dose: 200.0 mg/kg/injection, schedule: Q04DX003 (ip), vehicle: Klucel (hydroxypropylcellulose) (HPC)
[3] = dose: 400.0 mg/kg/injection, schedule: Q04DX003 (ip), vehicle: Klucel (hydroxypropylcellulose) (HPC)
[4] = dose: 60.0 mg/kg/injection, schedule: Q01DX005 (ip), vehicle: saline with Tween-80
[5] = dose: 120.0 mg/kg/injection, schedule: Q01DX005 (ip), vehicle: saline with Tween-80
[6] = dose: 240.0 mg/kg/injection, schedule: Q01DX005 (ip), vehicle: saline with Tween-80
[7] = dose: 50.0 mg/kg/injection, schedule: Q01DX009 (ip), vehicle: saline with Tween-80
[8] = dose: 100.0 mg/kg/injection, schedule: Q01DX009 (ip), vehicle: saline with Tween-80

N#Cc1c(-c2ccc(Cl)cc2)c(-c2ccc(Cl)cc2)nn(CCOC(=O)CCC(=O)O)c1=O
T/C (dose: 3.13 mg/kg/injection, schedule: Q01DX005 (ip), vehicle: distilled water + Tween-80): 100 % of control
T/C (dose: 6.25 mg/kg/injection, schedule: Q01DX005 (ip), vehicle: distilled water + Tween-80): 100 % of control
T/C (dose: 12.5 mg/kg/injection, schedule: Q01DX005 (ip), vehicle: distilled water + Tween-80): 105 % of control
T/C (dose: 12.5 mg/kg/injection, schedule: Q01DX005 (ip), vehicle: saline): 104 % of control
T/C (dose: 12.5 mg/kg/injection, schedule: Q01DX005 (ip), vehicle: sodium bicarbonate): 103 % of control
T/C (dose: 12.5 mg/kg/injection, schedule: Q04DX002 (ip), vehicle: distilled water + Tween-80): 106 % of control
T/C (dose: 25.0 mg/kg/injection, schedule: Q01DX005 (ip), vehicle: distilled water + Tween-80): 114 % of control and 117 % of control
T/C (dose: 25.0 mg/kg/injection, schedule: Q01DX005 (ip), vehicle: saline): 112 % of control
T/C (dose: 25.0 mg/kg/injection, schedule: Q01DX005 (ip), vehicle: sodium bicarbonate): 112 % of control
T/C (dose: 25.0 mg/kg/injection, schedule: Q04DX002 (ip), vehicle: distilled water + Tween-80): 105 % of control and 113 % of control
T/C (dose: 50.0 mg/kg/injection, schedule: Q01DX005 (ip), vehicle: distilled water + Tween-80): 172 % of control and 184 % of control
T/C (dose: 100.0 mg/kg/injection, schedule: Q01DX005 (ip), vehicle: saline): 180 % of control
T/C (dose: 100.0 mg/kg/injection, schedule: Q01DX005 (ip), vehicle: sodium bicarbonate): 202 % of control
T/C (dose: 100.0 mg/kg/injection, schedule: Q04DX002 (ip), vehicle: distilled water + Tween-80): 115 % of control and 92 % of control

Cc1ccc2[nH]c(C)c(C(=O)c3ccncc3)c2c1
T/C [1]: 100 % of control
T/C [2]: 100 % of control
T/C [3]: 107 % of control

COc1ccc(OC)c(NC(=S)NC(=O)c2cccc(Br)c2)c1
T/C [4]: 95 % of control
T/C [5]: 92 % of control
T/C [6]: 89 % of control

Cc1ccnc(NS(=O)(=O)c2ccc(Nc3c4ccccc4nc4cc(Cl)ccc34)cc2)n1
T/C [1]: 104 % of control and 114 % of control
T/C [2]: 106 % of control and 118 % of control
T/C [3]: 124 % of control

CCCCN(CCCC)CC(O)c1cc(-c2ccc(C(F)(F)F)cc2)nc(-c2ccc(C(F)(F)F)cc2)c1 (configuration not stated)
T/C (dose: 6.25 mg/kg/injection, schedule: Q01DX009 (ip), vehicle: saline with Tween-80): 109 % of control
T/C (dose: 12.5 mg/kg/injection, schedule: Q01DX009 (ip), vehicle: saline with Tween-80): 109 % of control
T/C (dose: 25.0 mg/kg/injection, schedule: Q01DX009 (ip), vehicle: saline with Tween-80): 100 % of control

CN1Cc2c(c3c(n2C)CCCC3=O)C(O)C1 (configuration not stated)
T/C (dose: 50.0 mg/kg/injection, schedule: Q04DX002 (ip), vehicle: saline): 106 % of control
T/C (dose: 100.0 mg/kg/injection, schedule: Q04DX002 (ip), vehicle: saline): 100 % of control
T/C (dose: 200.0 mg/kg/injection, schedule: Q04DX002 (ip), vehicle: saline): 102 % of control

O=P(c1ccccc1)(c1ccccc1)C(O)c1ccc(F)cc1 (configuration not stated)
T/C (dose: 50.0 mg/kg/injection, schedule: Q01DX009 (ip), vehicle: Klucel (hydroxypropylcellulose) (HPC)): 89 % of control
T/C (dose: 100.0 mg/kg/injection, schedule: Q01DX009 (ip), vehicle: Klucel (hydroxypropylcellulose) (HPC)): 100 % of control
T/C (dose: 200.0 mg/kg/injection, schedule: Q01DX009 (ip), vehicle: Klucel (hydroxypropylcellulose) (HPC)): 93 % of control

O=C1C(=Nc2ccccc2)Cc2ccccc21
T/C (dose: 100.0 mg/kg/injection, schedule: Q04DX003 (ip), vehicle: saline with Tween-80): 100 % of control
T/C (dose: 200.0 mg/kg/injection, schedule: Q04DX003 (ip), vehicle: saline with Tween-80): 96 % of control
T/C (dose: 400.0 mg/kg/injection, schedule: Q04DX003 (ip), vehicle: saline with Tween-80): 100 % of control

O=[N+]([O-])/C=C/c1ccccc1Cl
T/C (dose: 10.0 mg/kg/injection, schedule: Q01DX009 (ip), vehicle: other): 115 % of control
T/C (dose: 30.0 mg/kg/injection, schedule: Q04DX003 (ip), vehicle: other): 118 % of control

O=C(N=Nc1c(Cl)c(O)c2ccccc2c1O)C(=O)Nc1ccc(Cl)c([N+](=O)[O-])c1
T/C [7]: 113 % of control
T/C [8]: 112 % of control

O=C(Cc1c[nH]c2ccccc12)Nc1nncs1
T/C (dose: 100.0 mg/kg/injection, schedule: Q04DX002 (ip), vehicle: saline with Tween-80): 97 % of control
T/C (dose: 200.0 mg/kg/injection, schedule: Q04DX002 (ip), vehicle: saline with Tween-80): 97 % of control
T/C (dose: 400.0 mg/kg/injection, schedule: Q04DX002 (ip), vehicle: saline with Tween-80): 110 % of control

CCOC(=O)CN(CC(=O)OCC)c1ccccc1OCCOc1ccccc1N(CC(=O)OCC)CC(=O)OCC
T/C (dose: 60.0 mg/kg/injection, schedule: Q01DX005 (ip), vehicle: Klucel (hydroxypropylcellulose) (HPC)): 95 % of control
T/C (dose: 120.0 mg/kg/injection, schedule: Q01DX005 (ip), vehicle: Klucel (hydroxypropylcellulose) (HPC)): 96 % of control
T/C (dose: 240.0 mg/kg/injection, schedule: Q01DX005 (ip), vehicle: Klucel (hydroxypropylcellulose) (HPC)): 93 % of control

COc1cc2c(cc1OC)C(Cc1ccc(OC)c(Oc3ccc(CC4c5cc(OC)c(OC)c(O)c5CCN4C)cc3)c1)N(C)CC2 (configuration not stated)
T/C (dose: 20.0 mg/kg/injection, schedule: Q01DX009 (ip), vehicle: Klucel (hydroxypropylcellulose) (HPC)): 106 % of control
T/C (dose: 40.0 mg/kg/injection, schedule: Q01DX009 (ip), vehicle: Klucel (hydroxypropylcellulose) (HPC)): 107 % of control
T/C (dose: 80.0 mg/kg/injection, schedule: Q01DX009 (ip), vehicle: Klucel (hydroxypropylcellulose) (HPC)): 111 % of control

Cc1ccc(C)n1N1CCOCC1
T/C [4]: 108 % of control
T/C [5]: 101 % of control
T/C [6]: 100 % of control

c1ccc2c(c1)CN1Cc3ccccc3C2C1
T/C [7]: 99 % of control
T/C [8]: 93 % of control
T/C (dose: 200.0 mg/kg/injection, schedule: Q01DX009 (ip), vehicle: saline with Tween-80): 91 % of control

NC(=O)C1=C(C(=O)O)CCC1
T/C (dose: 25.0 mg/kg/injection, schedule: Q01DX009 (ip), vehicle: distilled water + Tween-80): 99 % of control
T/C (dose: 50.0 mg/kg/injection, schedule: Q01DX009 (ip), vehicle: distilled water + Tween-80): 100 % of control
T/C (dose: 100.0 mg/kg/injection, schedule: Q01DX009 (ip), vehicle: distilled water + Tween-80): 98 % of control
T/C (dose: 200.0 mg/kg/injection, schedule: Q01DX009 (ip), vehicle: distilled water + Tween-80): 96 % of control
T/C (dose: 400.0 mg/kg/injection, schedule: Q01DX009 (ip), vehicle: distilled water + Tween-80): 92 % of control

CC1CN1CCS(=O)(=O)CCN1CC1C (configuration not stated)
T/C [7]: 95 % of control
T/C [8]: 104 % of control

CCN1C(=O)C2C3C=CC(C2C1=O)C1C2C(=O)N(CC)C(=O)C2C31 (configuration not stated)
T/C (dose: 100.0 mg/kg/injection, schedule: Q01DX001 (ip), vehicle: suspension in saline): 99 % of control
T/C (dose: 200.0 mg/kg/injection, schedule: Q01DX001 (ip), vehicle: suspension in saline): 96 % of control
T/C (dose: 400.0 mg/kg/injection, schedule: Q01DX001 (ip), vehicle: suspension in saline): 100 % of control

COc1cc(NS(C)(=O)=O)ccc1Nc1c2ccccc2nc2c(C)cccc12
T/C (dose: 1.25 mg/kg/injection, schedule: Q01DX009 (ip), vehicle: saline with Tween-80): 155 % of control
T/C (dose: 2.5 mg/kg/injection, schedule: Q01DX009 (ip), vehicle: saline with Tween-80): 165 % of control
T/C (dose: 5.0 mg/kg/injection, schedule: Q01DX009 (ip), vehicle: saline with Tween-80): 87 % of control
T/C (dose: 6.25 mg/kg/injection, schedule: Q01DX009 (ip), vehicle: Klucel (hydroxypropylcellulose) (HPC)): 97 % of control

CCCCCC[N+]1(CC)CCCC1
T/C (dose: 0.78 mg/kg/injection, schedule: Q01DX009 (ip), vehicle: saline): 97 % of control
T/C (dose: 1.56 mg/kg/injection, schedule: Q01DX009 (ip), vehicle: saline): 113 % of control
T/C (dose: 3.12 mg/kg/injection, schedule: Q01DX009 (ip), vehicle: saline): 98 % of control and 100 % of control

Nc1ccc2c(SCCSc3c4ccccc4nc4cc(N)ccc34)c3ccccc3nc2c1
T/C [4]: 97 % of control
T/C [5]: 100 % of control

COc1cc([C@H]2OC[C@H]3[C@@H]2CO[C@@H]3c2cc(OC)c3c(c2)OCO3)cc(OC)c1OC
T/C (dose: 9.75 mg/kg/injection, schedule: Q01DX009 (ip), vehicle: saline + Tween-80 + alcohol): 93 % of control
T/C (dose: 19.5 mg/kg/injection, schedule: Q01DX009 (ip), vehicle: saline + Tween-80 + alcohol): 106 % of control
T/C (dose: 39.0 mg/kg/injection, schedule: Q01DX009 (ip), vehicle: saline + Tween-80 + alcohol): 99 % of control
T/C (dose: 78.0 mg/kg/injection, schedule: Q01DX009 (ip), vehicle: saline + Tween-80 + alcohol): 107 % of control
